Patent US12601743B2, “Methods for treating drug resistant cancers” (The Regents of the University of California, priority 2017, dated 2026)
“Also recorded” adds a separate entry of the source.

Tests used:
[1] = system: YAP/TAZ expression in GBM cells; assay: YAP/TAZ expression after PAK4 inhibition (immunoblot); type: cell-based, human; details: FIG. 3H, FIG. 14C; U87MG, LN229
Description: Chemicals. Verteporfin (YAP inhibitor) was purchased from Sigma and used at the concentration of 0.5-10 μM for 24 hours. PF-03758309 (PAK4 inhibitor) was purchased from Chemietek and used at the concentration of 50 nM-1000 nM for 24 hours.
Immunoblotting. Proteins were extracted in RIPA buffer and quantified using the Pierce BCA kit (Thermo Fisher). 10-30 μg of protein was boiled in NuPage buffer (Thermo Fisher) and loaded onto a denaturing SDS-polyacrylamide gel (10%), transferred to PVDF membranes and blotted with anti-mouse or -rabbit HRP-conjugated secondary antibodies (Bio-Rad). The following antibodies were used for immunoblotting: β3 (Cell Signaling), Glut3 (Santa Cruz Biotechnology), YAP (Santa Cruz) YAP-XP (cell signaling), TAZ (Cell Signaling), PAK4 and pPAK4 (Cell Signaling), and Vinculin and β-actin (Sigma-Aldrich) as loading controls.

GBM26 and GBM12 GSCs = assay: GSC cell viability (CELLTITER-GLO), Mayo Clinic β3/Glut3-low models; type: cell-based, human; details: FIG. 17A-B
Description: (§1) Cell viability assay. U87MG, LN229, and LN18 cells were seeded at 1K cells per well in black 96-well plates in DMEM medium (no glucose) with 10% dialyzed FBS±glucose (0-4.5 g/L). Cell viability was determined by Alamar Blue dye (Life Technologies) according to manufacturer's instructions. For GSCs, cells were seeded at 10K cells per well in white 96-well low attachment plates in GSC medium±glucose (0-4.5 g/L). Viable cell numbers were evaluated using a CELLTITER-GLO™ assay kit (Promega). Each condition consisted of, at least, three replicate wells and data were expressed as relative luciferase units or as the percentage of survival of control cells.

GBM150 and GBM59 GSCs = assay: GSC cell viability (CELLTITER-GLO), Mayo Clinic models with Glut3 non-addicted signature; type: cell-based, human; details: mesenchymal, FIG. 17B
Description: as §1

[2] = system: GBM14, GBM64 and GBM85 GSCs; assay: GSC cell viability (CELLTITER-GLO), Mayo Clinic models predicted Glut3 addicted; type: cell-based, human; details: Classical or Proneural, Glut3 addicted signature, FIG. 17B
Description: as §1

Ge479 orthotopic tumors = assay: Orthotopic brain tumor xenograft survival, Ge479; type: in vivo, mice; details: Ge479 (Glut3 addicted); systemic treatment; FIG. 21
Description: Orthotopic brain tumor xenografts. Intracranial transplantation of U87MG or GSC (Ge518 and Ge479) into 6-8-week-old nu/nu nude immunocompromised mice (Charles River Labs) was performed in accordance with the UCSD Institutional Animal Care and Use Committee. U87MG cells bearing β3, Glut3 shRNA or shβ3 ectopically expressing Glut3 as well as shRNA control (15 mice per group) were orthotopically transplanted following washing and resuspension in PBS. Ge479 and Ge518 were orthotopically transplanted following washing and resuspension in DMEM/F12. Mice were treated with vehicle (PBS) or cilengitide (10 mg kg 1 or 30 mg kg 1; 8 mice per group) five days per week. Briefly, with a stereotaxic frame (Stoelting Co.), a small burr hole was made in the skull 2 mm anterior and 2 mm lateral to the bregma. A 31-gauge Hamilton needle/syringe was inserted 3 mm, and 0.25 μl/minute was dispensed (10^5 tumor cells in 2 μl media). A total of 1×10^5 and 3×10^5 cells in 2 μl was injected respectively for U87MG cells and GSCs respectively.

glioblastoma = details: GBM patients; phase III CENTRIC, phase II CORE (Stupp et al., 2014); cited from earlier work
[3] = system: Ge738, GBM6, Ge970.2 and Ge885 GSCs; assay: GSC cell viability (CELLTITER-GLO), GSC with low β3/Glut3 expression; type: cell-based, human; details: GSC with low β3/Glut3 expression (Ge738, GBM6, Ge970.2, Ge885); FIG. 5D, 5H
Description: as §1

Compound: Cc1nc(Nc2n[nH]c3c2CN(C(=O)N[C@H](CN(C)C)c2ccccc2)C3(C)C)c2sccc2n1 [PF-03758309]
- YAP/TAZ expression [1]: decrease of YAP/TAZ expression

Compound: CC(C)[C@H]1C(=O)N[C@@H](CCCN=C(N)N)C(=O)NCC(=O)N[C@@H](CC(=O)O)C(=O)N[C@H](Cc2ccccc2)C(=O)N1C [cilengitide, 2-[(2S,5R,8S,11S)-5-benzyl-11-{3-[(diaminomethylidene)amino]propyl}-7-methyl-3,6,9,12,15-pentaoxo-8-(propan-2-yl)-1,4,7,10,13-pentaazacyclopentadecan-2-yl]acetic acid]
- effect on cell viability (GBM26 and GBM12 GSCs): no effect or a moderate enhancement of viability
- sensitivity (cell viability) (GBM150 and GBM59 GSCs): largely resistant; also recorded: not affected
- sensitivity (cell viability) [2]: largely sensitive; also recorded: sensitivity to integrin blockade
- survival of mice bearing orthotopic tumors (Ge479 orthotopic tumors): dramatically prolongs the survival
- overall survival in clinical trials (glioblastoma): failed to meet overall survival endpoints; also recorded: failed to produce a significant overall survival benefit
- effect on cell viability [3]: moderate enhancement of viability
